# Laboratory results: PMC10470053, “Diverse p120RasGAP interactions with doubly phosphorylated partners EphB4, p190RhoGAP, and Dok1” (The Journal of Biological Chemistry, 2023)
# Where a chain is given by its changes, count along the chain named. Values joined by “and” are separate entries in the source; they are usually repeats but may differ in a detail not shown here. Identical values can stand only once. Square brackets hold non-standard residues; d marks the D form. Peptide text beside a SMILES is read from it. pY = N[C@@H](Cc1ccc(OP(=O)(O)O)cc1)C(=O)O
# T1: RasGAP^232(mut) (R398E/K400E, C-SH2 mutant) (Homo sapiens, UniProt P20936, C236S/C261S/C372S/C402S/K400E/R398E)
# T1 construct: (residues 174–444, termed RasGAP^232); hexahistidine (TEV-cleavable) (N, cleaved yes); made in house; host or cells: E. coli Rosetta (DE3)
# T1 sequence (P20936 174-444 C236S/C261S/C372S/R398E/K400E/C402S): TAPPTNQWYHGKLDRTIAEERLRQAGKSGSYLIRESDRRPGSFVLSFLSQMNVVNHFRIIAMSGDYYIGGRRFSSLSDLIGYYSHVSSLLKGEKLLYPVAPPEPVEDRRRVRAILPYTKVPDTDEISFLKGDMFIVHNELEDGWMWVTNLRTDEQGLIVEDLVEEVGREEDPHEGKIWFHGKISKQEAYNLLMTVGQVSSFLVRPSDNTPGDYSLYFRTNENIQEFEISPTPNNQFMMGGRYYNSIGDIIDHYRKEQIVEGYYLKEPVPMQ
# T2: RasGAP^232(mut) (RasGAP^232 with R398E/K400E in the C-SH2 domain) (human, UniProt P20936 174-444, C236S | C261S | C372S | C402S | R398E | K400E)
# T2 construct: p120RasGAP, human, UniProt P20936, residues 174-444; Made by site-directed mutagenesis of RasGAP^232, which holds the four cysteine to serine mutations; also called C-SH2 mutant; source: E. coli Rosetta (DE3), purified (same protocol as the WT counterpart); not shown: His6, N-terminal, cleaved
# T2 sequence (looked up): T1 sequence (P20936 174-444 C236S/C261S/C372S/R398E/K400E/C402S)
# T3: RasGAP^232 (p120RasGAP N-SH2, SH3 and C-SH2 domains, residues 174-444) (human, UniProt P20936 174-444, C236 | C261 | C372 | C402)
# T3 construct: p120RasGAP (RASA1), human, UniProt P20936, residues 174-444 (N-SH2, SH3, C-SH2), with four cysteine to serine mutations; also called WT RasGAP^232; apo RasGAP^232; source: E. coli Rosetta (DE3), purified (Ni-NTA, TEV cleavage, anion exchange, SEC)
# T3 sequence (looked up): T1 sequence (P20936 174-444 C236S/C261S/C372S/R398E/K400E/C402S) with E225R, E227K
# T4: RasGAP^232(mut) (RasGAP^232 with R398E/K400E in the C-SH2 domain) (human, UniProt P20936 174-444, R398E | K400E | C236 | C261 | C372 | C402)
# T4 construct: p120RasGAP (RASA1), human, UniProt P20936, residues 174-444, mutant of RasGAP^232 in the C-SH2 domain; also called C-SH2 mutant; source: E. coli Rosetta (DE3), purified (same protocol as the WT: Ni-NTA, TEV cleavage, anion exchange, SEC)
# T4 sequence (looked up): T1 sequence (P20936 174-444 C236S/C261S/C372S/R398E/K400E/C402S)
# B1: singly phosphorylated EphB4 peptide pY596 (peptide)
# peptide: Ac-DPFT[pY]EDPNE-NH2
# SMILES: CC(=O)N[C@@H](CC(=O)O)C(=O)N1CCC[C@H]1C(=O)N[C@@H](Cc1ccccc1)C(=O)N[C@H](C(=O)N[C@@H](Cc1ccc(OP(=O)(O)O)cc1)C(=O)N[C@@H](CCC(=O)O)C(=O)N[C@@H](CC(=O)O)C(=O)N1CCC[C@H]1C(=O)N[C@@H](CC(N)=O)C(=O)N[C@@H](CCC(=O)O)C(N)=O)[C@@H](C)O
# notes: EphB4, UniProt P54760; also called pY596 EphB4; source: synthetic peptide, bought: GenScript
# B2: singly phosphorylated EphB4 peptide pY590 (peptide)
# peptide: Ac-GTKV[pY]IDPFT-NH2
# SMILES: CC[C@H](C)[C@H](NC(=O)[C@H](Cc1ccc(OP(=O)(O)O)cc1)NC(=O)[C@@H](NC(=O)[C@H](CCCCN)NC(=O)[C@@H](NC(=O)CNC(C)=O)[C@@H](C)O)C(C)C)C(=O)N[C@@H](CC(=O)O)C(=O)N1CCC[C@H]1C(=O)N[C@@H](Cc1ccccc1)C(=O)N[C@H](C(N)=O)[C@@H](C)O
# notes: EphB4, UniProt P54760, residues 586-595; also called pY590 EphB4; source: synthetic peptide, bought: GenScript
# B3: doubly phosphorylated Dok1 peptide (residues 291-322, pY296 and pY315) (peptide)
# peptide: Ac-SPPAL[pY]AEPLDSLRIAPCPSQDSL[pY]SDPLDST-NH2
# SMILES: CC[C@H](C)[C@H](NC(=O)[C@H](CCCNC(=N)N)NC(=O)[C@H](CC(C)C)NC(=O)[C@H](CO)NC(=O)[C@H](CC(=O)O)NC(=O)[C@H](CC(C)C)NC(=O)[C@@H]1CCCN1C(=O)[C@H](CCC(=O)O)NC(=O)[C@H](C)NC(=O)[C@H](Cc1ccc(OP(=O)(O)O)cc1)NC(=O)[C@H](CC(C)C)NC(=O)[C@H](C)NC(=O)[C@@H]1CCCN1C(=O)[C@@H]1CCCN1C(=O)[C@H](CO)NC(C)=O)C(=O)N[C@@H](C)C(=O)N1CCC[C@H]1C(=O)N[C@@H](CS)C(=O)N1CCC[C@H]1C(=O)N[C@@H](CO)C(=O)N[C@@H](CCC(N)=O)C(=O)N[C@@H](CC(=O)O)C(=O)N[C@@H](CO)C(=O)N[C@@H](CC(C)C)C(=O)N[C@@H](Cc1ccc(OP(=O)(O)O)cc1)C(=O)N[C@@H](CO)C(=O)N[C@@H](CC(=O)O)C(=O)N1CCC[C@H]1C(=O)N[C@@H](CC(C)C)C(=O)N[C@@H](CC(=O)O)C(=O)N[C@@H](CO)C(=O)N[C@H](C(N)=O)[C@@H](C)O
# notes: Dok1, UniProt Q99704, residues 291-322; also called pYpY Dok1; source: synthetic peptide, bought: GenScript
# B4: singly phosphorylated EphB4 peptide pY590 (residues 586-595) (peptide)
# peptide: Ac-GTKV[pY]IDPFT-NH2
# SMILES: CC[C@H](C)[C@H](NC(=O)[C@H](Cc1ccc(OP(=O)(O)O)cc1)NC(=O)[C@@H](NC(=O)[C@H](CCCCN)NC(=O)[C@@H](NC(=O)CNC(C)=O)[C@@H](C)O)C(C)C)C(=O)N[C@@H](CC(=O)O)C(=O)N1CCC[C@H]1C(=O)N[C@@H](Cc1ccccc1)C(=O)N[C@H](C(N)=O)[C@@H](C)O
# notes: EphB4 juxtamembrane region, UniProt P54760, residues 586-595; also called pY590 EphB4; source: synthetic peptide, bought: GenScript
# B5: singly phosphorylated EphB4 peptide pY596 (peptide)
# peptide: Ac-DPFT[pY]EDPNE-NH2
# SMILES: CC(=O)N[C@@H](CC(=O)O)C(=O)N1CCC[C@H]1C(=O)N[C@@H](Cc1ccccc1)C(=O)N[C@H](C(=O)N[C@@H](Cc1ccc(OP(=O)(O)O)cc1)C(=O)N[C@@H](CCC(=O)O)C(=O)N[C@@H](CC(=O)O)C(=O)N1CCC[C@H]1C(=O)N[C@@H](CC(N)=O)C(=O)N[C@@H](CCC(=O)O)C(N)=O)[C@@H](C)O
# notes: EphB4 juxtamembrane region, UniProt P54760; also called pY596 EphB4; source: synthetic peptide, bought: GenScript
# How the values were obtained:
# [1] = target: T1, RasGAP^232(mut) (R398E/K400E, C-SH2 mutant); experiment: Isothermal titration calorimetry, C-SH2 mutant RasGAP^232(mut); type: binding
# Experimental: One possibility for the difference in binding affinity of EphB4 compared to the other dually phosphorylated peptides is that only a single SH2 domain engages EphB4 at any time. This is supported by the observation that the Kd of binding, 2 μM, is similar to other reported individual SH2 phosphotyrosine interactions (for examples see ([60])) and the evidence of only one inflection point in the doubly phosphorylated EphB4–binding isotherm (Figs. 2B and S3). To assess this hypothesis, we generated two RasGAP^232 mutants that disrupt the phosphotyrosine-binding sites of either the N- or C-SH2 domains and conducted further ITC experiments. […] For the ‘FLVR-unique” C-terminal SH2, we introduced a double mutation R398E/K400E, to abrogate phosphotyrosine binding guided by our previous work ([52]), termed RasGAP^232(mut) (Fig. 2D). We additionally generated a double mutant of both SH2 domains, RasGAP^2(mut)32(mut), and purified each of these proteins (Fig. S2, B–D). […] We then assessed phosphopeptide binding of the single mutant SH2 domains. […] This is similar to the Kd of 2 ± 0.7 μM observed for titration of this peptide into WT RasGAP^232.
# To attempt to parse the specificity of RasGAP for the more N- or C-terminal EphB juxtamembrane phosphotyrosines pY590 and pY596, we assessed the affinity of RasGAP^232(mut) for shorter synthesized EphB4 peptides corresponding to either of the two phosphotyrosines (Fig. 1C). […] Alternatively, the C-terminal SH2 may contribute to a second weaker interaction in a tandem interaction. […] This low-affinity interaction represents a primarily single N-SH2-dominant interaction.
# Purified RasGAP^232 protein and solubilized peptides were dialyzed overnight against buffer containing 20 mM Tris pH 8, 250 mM NaCl in Slide-A-Lyzer 3 ml 10 kDa molecular weight cut off cassettes (Spectra-Por) and Micro Float-A-Lyzer 0.1 to 0.2 ml, 0.1 to […] molecular weight cut off devices (Spectra-Por), respectively. Protein and peptide concentrations were determined by A280 measured on a Nanodrop Lite (Thermo Fisher Scientific) instrument using extinction coefficients of 45,840 M^−1 cm^−1 for RasGAP^232 (and mutants), 917 M^−1 cm^−1 for the doubly phosphorylated EphB4 peptide, and 458.5 M^−1 cm^−1 for the singly phosphorylated EphB4 peptides as determined by ([74]). Dok1 peptide concentration was confirmed using Amino Acid Analysis performed at UC Davis Molecular Structure Facility. Samples were centrifuged for 10 min at 4 °C and degassed for 7 min using a Degassing Station (TA Instruments). ITC experiments were performed on a Nano ITC (TA Instruments) by loading protein into the 190 μl sample cell and titrating 20 times with 2.5 μl peptide in the titration syringe. Concentrations for sample cell and syringe for each trial are included in Table S1. The data were analyzed in NanoAnalyze software (TA Instrument) using blank (constant) and independent models (https://www.tainstruments.com/itcrun-dscrun-nanoanalyze-software/).
# [2] = target: T2, RasGAP^232(mut) (RasGAP^232 with …); experiment: ITC; RasGAP^232 protein (WT or mutant) in the 190 µl sample cell, peptide in the syringe, 20 injections of 2.5 µl; 20 mM Tris pH 8, 250 mM NaCl; Nano ITC (TA Instruments); blank (constant) and independent models; values of single trials, averages and stdev; details: both partners purified
# [3] = target: T3, RasGAP^232 (p120RasGAP N-SH2, SH3 and …); experiment: ITC; protein in the 190 ul sample cell, titrated 20 times with 2.5 ul peptide from the syringe; 20 mM Tris pH 8, 250 mM NaCl; Nano ITC (TA Instruments); independent binding model; details: both partners purified
# [4] = target: T4, RasGAP^232(mut) (RasGAP^232 with …); experiment: as above; details: both partners purified
# [5] = ITC, average of trials (Table S1)
molecule,measurement,setting,value
CC(=O)N[C@@H](CC(=O)O)C(=O)N1CCC[C@H]1C(=O)N[C@@H](Cc1ccccc1)C(=O)N[C@H](C(=O)N[C@@H](Cc1ccc(OP(=O)(O)O)cc1)C(=O)N[C@@H](CCC(=O)O)C(=O)N[C@@H](CC(=O)O)C(=O)N1CCC[C@H]1C(=O)N[C@@H](CC(N)=O)C(=O)N[C@@H](CCC(=O)O)C(N)=O)[C@@H](C)O [pY596 EphB4] (Ac-DPFT[pY]EDPNE-NH2),weaker binding than the doubly phosphorylated EphB4 peptide,"[1]; ITC Kd, singly versus doubly phosphorylated EphB4 peptide",about 10 fold
same,n,"[1]; ITC stoichiometry, mean ± SD of trials",0.6 ± 0.2
same,-T∆S,[1]; [5],-1.2 kcal/mol
same,Ka,[1]; [5],0.05 µM⁻¹
same,∆G,[1]; [5],-6.38 kcal/mol
same,ΔH,"[1]; ITC, mean ± SD of trials",-5.26 kcal/mol and -5.26 ± 0.96 kcal/mol
same,ΔS,"[1]; ITC, mean ± SD of trials",15 J/mol∗K and 15 ± 13 J/mol∗K
same,-T∆S,"[1]; trial 2, ITC",-1.58 kcal/mol
same,∆G,"[1]; trial 2, ITC",-6.36 kcal/mol
same,∆H,"[1]; trial 2, ITC",-4.8 kcal/mol
same,∆S,"[1]; trial 2, ITC",22.0 J/mol*K
same,-T∆S,"[1]; trial 3, ITC",-0.048 kcal/mol
same,Ka,"[1]; trial 3, ITC",0.05 µM⁻¹
same,∆G,"[1]; trial 3, ITC",-6.48 kcal/mol
same,∆H,"[1]; trial 3, ITC",-6.43 kcal/mol
same,∆S,"[1]; trial 3, ITC",0.8 J/mol*K
B1,Ka,[2],40000 M⁻¹ and 50000 M⁻¹
same,Kd,[2],24 µM and 22 µM and 18 µM
same,stoichiometry N,[2],0.7 and 0.8 and 0.4
B2,Kd,[2],24.2 µM and 14.6 µM and 9.7 µM
same,stoichiometry N,[2],0.7 and 0.8
B3,Kd,[3],0.03 ± 0.02 µM
same,dH,[3],-18.6 ± 0.717 kcal/mol
same,stoichiometry N,[3],0.8 ± 0.1
B4,Kd,[4],16 ± 7 µM
same,dH,[4],-3.7 kcal/mol
same,stoichiometry N,[4],0.8 ± 0.1
B5,Kd,[4],21 ± 3 µM
same,dH,[4],-5.26 ± 0.956 kcal/mol
same,stoichiometry N,[4],0.6 ± 0.2
